Key:
Assay type in all cases: cell-based
GP2D (KRASG12D) = assay: 3D cell proliferation inhibition test (CellTiter-Glo 3D, 7 days), GP2D; conditions: 168 h, read-out: Inhibitory activity on cell proliferation (IC50) GP2D (KRASG12D)
Experimental: (§1) The diluted compounds to be tested were added to 384-well low-adhesion KRAS mutant types (such as GP2D, NCI H358, LoVo, RKN and KP2) of cell culture plates by using a nanoliter pipetting system (LABCYTE, P-0200). Then, the cells were plated and incubated in a 37°C, 5% CO2 incubator for 7 days. Afterward, CellTiter-Glo® 3D reagent was added, and the luminescent values were read by an Envision multifunctional microplate reader (the luminescent signal is proportional to the amount of ATP in the system, and the ATP content directly represents the number of viable cells in the system). Finally, the IC50 values (half-maximal inhibitory concentration) of the compounds were obtained by the XLFIT software using the nonlinear fitting formula.
(§2) • a) The diluted compounds to be tested were added to 384-well low-adhesion KRAS mutant types of cell culture plates by using a nanoliter pipetting system. • b) Cells were seeded into the 384-well plates in a) and then centrifuged at 1000 rpm for 1 min at room temperature, with a final DMSO concentration of compound being 0.5%. The plates were then incubated in a 5% CO2 constant-temperature incubator at 37°C for 7 days. • c) CellTiter-Glo® 3D was added to the 384-well cell culture plates in b), shaken in the dark, and incubated at room temperature. • d) The luminescence values were read by using an Envision multifunctional microplate reader.
(§3) The IC50 (half-maximal inhibitory concentration) values of the compounds were obtained by using XLFIT software according to the following nonlinear fitting formula: Y = Bottom + (Top−Bottom)/(1+10^(∧)((LogIC50−X)×HillSlope)) [formula] • X: log value of compound concentration. • Y: inhibition rate (%) [formula] • Negative control: DMSO. • Positive control: Medium only.

NCI H358 (KRAS G12C) = assay: 3D cell proliferation inhibition test (CellTiter-Glo 3D, 7 days), NCI H358; conditions: Homo sapiens, NCI-H358, 168 h, read-out: Inhibitory activity on cell proliferation (IC50) NCI H358 (KRAS G12C)
Experimental: as §1
as §2, with “reader. […]” for “reader.”

LoVo (KRAS G13D) = assay: 3D cell proliferation inhibition test (CellTiter-Glo 3D, 7 days), LoVo; conditions: Homo sapiens, 168 h, read-out: Inhibitory activity on cell proliferation (IC50) LoVo (KRAS G13D)
Experimental: as §1
as §2, with “reader. […]” for “reader.”

RKN (KRAS G12V) = assay: 3D cell proliferation inhibition test (CellTiter-Glo 3D, 7 days), RKN; conditions: 168 h, read-out: Inhibitory activity on cell proliferation (IC50) RKN (KRAS G12V)
Experimental: as §1, §2, §3

KP2 (KRAS G12R) = assay: 3D cell proliferation inhibition test (CellTiter-Glo 3D, 7 days), KP2; conditions: 168 h, read-out: Inhibitory activity on cell proliferation (IC50) KP2 (KRAS G12R)
Experimental: as §1
as §2, with “reader. […]” for “reader.”

| SMILES | IC50 (GP2D (KRASG12D)) [nM] | IC50 (NCI H358 (KRAS G12C)) [nM] | IC50 (LoVo (KRAS G13D)) [nM] | IC50 (RKN (KRAS G12V)) [nM] | IC50 (KP2 (KRAS G12R)) [nM] |
| --- | --- | --- | --- | --- | --- |
| CC1(O)COCCN(c2nc(OCC34CCCN3C(c3cc(F)c(F)c(F)c3)CC4)nc3c(F)c(-c4cccc5sc(N)c(C#N)c45)c(Br)cc23)C1 (single isomer, unassigned) [Example 26, 2-amino-4-[6-bromo-8-fluoro-4-(6-hydroxy-6-methyl-1,4-oxazepan-4-yl)-2-({[3-(3,4,5-trifluoropheny 1)-2,3,5,6,7,7a-hexahydro-1H-pyrrolizin-7a-yl]methyl}oxy)quinazolin-7-yl]benzo[b]thiophene-3-carb onitrile] | 2.99 | 1.03 | 14.2 | 4.32 | 56.6 |
| CC1(O)COCCN(c2nc(OCC34CCCN3C(c3cc(F)c(F)c(F)c3)CC4)nc3c(F)c(-c4cccc5sc(N)c(C#N)c45)c(I)cc23)C1 (single isomer, unassigned) [Example 31, 2-amino-4-[6-iodo-8-fluoro-4-(6-hydroxy-6-methyl-1,4-oxazepan-4-yl)-2-({[3-(3,4,5-trifluorophenyl)-2,3,5,6,7,7a-hexahydro-1H-pyrrolizin-7a-yl]methyl}oxy)quinazolin-7-yl]benzo[b]thiophene-3-carbonitrile] | 1.75 | 0.69 | 20.6 | 3.69 | 59.1 |
